What was measured:
[1] = biological target: T1, Nα-amino-terminal fluorescein-labeled Aβ40 (Homo sapiens, UniProt P05067); experiment: Fluorescence titration; conditions: 20 mM NaPi, 1% TFE, pH 7.4; read-out: apparent binding affinity (app. Kd)
T1 construct: fluorescein-labeled Aβ40 was purchased from Anaspec (Fremont, Calif., USA); purchased Anaspec (Fremont, Calif., USA)
Method: N^α-amino-terminal fluorescein-labeled Aβ40 was purchased from Anaspec (Fremont, Calif., USA) and used without further purification. To ensure the monomeric state of N^α-amino-terminal fluorescein-labeled Aβ40, the peptide was treated similar to other peptides and stored at −80° C. in the dark until use. Fluorescence measurements were performed on a FlexStation 3 Multi-Mode Microplate reader from Molecular Devices (Sunnyvale, Calif., USA). Fluorescence titrations were conducted in triplicate in a 96-well plate with a final well volume of 200 μL. For fluorescence measurements, the fluorescein dye was excited at 492 nm and the spectra were recorded from 500 nm to 600 nm. […] The plot was fitted using a sigmoidal fit to extract the apparent binding affinity.

[2] = DLS and UV-Vis probe of colloidal aggregation of the compound; format: physicochemical
Method: UV-Vis was employed to probe the chemical aggregation of ADH-41 under kinetic assay conditions. The measurements were carried out on a double beam Carry 100 Bio spectrophotometer (Agilent Technologies, Santa Clara, Calif.) controlled by Cary WinUV software (version=3.0).
Dynamic light scattering (DLS) and ultraviolet-visible (UV-Vis) spectroscopy was employed to probe the micelle forming capacity of ADH-41.

Aβ40 [3] = biological target: T2, Aβ40 (Homo sapiens, UniProt P05067); experiment: Seed-catalyzed kinetic assay, Aβ40; format: biochemical; conditions: 20 μM Aβ40, 10% seeds, equimolar ratio
T2 construct: Cleavage of APP results in several Aβ isoforms; The predominant species are Aβ42 and Aβ40; purchased Anaspec (Fremont, Calif., USA)
Method: Seeds of Aβ40/Aβ42 were prepared by incubating 200 μM of Aβ40/Aβ42 in phosphate buffer at room temperature. The samples were aged for 48 h and the formation of fibers was confirmed by TEM and ThT before storage at −20° C. until use. For the aggregation of Aβ40, 10% (based on the monomeric Aβ40, v/v) seeds were added along with ThT in phosphate buffer to the 96-well plate. The aggregation was initiated by the addition of monomeric Aβ40 followed by gentle mixing. The process was similar in the case of Aβ42 except that the seed concentration was 5% (based on the monomeric Aβ42, v/v).
The seeds were generated by aging 200 μM Aβ peptides for 48 h in phosphate buffer with occasional vortexing. The concentration of seeds was calculated based on the monomeric concentration of Aβ.

Aβ40 [4] = biological target: T2, Aβ40; experiment: Isothermal titration calorimetry (ITC); format: binding
Method: ITC experiments were performed in a NANO-ITC (TA instruments, New Castle, Del., USA). […] The heat associated with each injection was calculated by integrating each heat burst curve using NanoAnalyze software (New Castle, Del., USA). […] No parameter was constrained during the fitting. The data were extracted from the best fit after 10,000 iterations.

IAPP = biological target: T3, IAPP (Homo sapiens, UniProt P10997); experiment: Lipid (LUV) catalyzed IAPP aggregation, ThT; format: biochemical; conditions: 10 μM IAPP, LUVs (DOPG:DOPC 1:1, 600 μM), equimolar ratio
T3 construct: purchased Anaspec (Fremont, Calif., USA)
T3 sequence (P10997 34-70 limits assumed): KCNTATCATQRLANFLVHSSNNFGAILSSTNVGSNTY
Method: LUVs were prepared using an equimolar ratio of dioleoylphosphatidylglycerol (DOPG) and dioleoylphosphatidylcholine (DOPC). A solution of DOPG and DOPC (10 mg/mL each) in chloroform was mixed, dried over a stream of argon (g) for 1 h, and then lyophilized for 6 h (0.1×10^−3 bar). The solid was then rehydrated in 1 mL phosphate buffer for 30 min. The turbid solution (10 mg/mL, 1:1, DOPG:DOPC) was then extruded (21 times) through 100 nm diameter filters (Whatman, GE Healthcare, Marlborough, Mass., USA). The concentration of the phospholipid content in the extruded material was confirmed by calculating total phosphorus using total phosphate assay as described in Chen, P. S.; Toribara, T. Y.; Warner, H. Anal. Chem. 1956, 28, 1756-1758.
The effect of the α-helical mimetics was also assessed on the membrane associated α-helical conformation of IAPP.

Aβ42 [5] = biological target: T4, Aβ42 (Homo sapiens, UniProt P05067); experiment: Dynamic light scattering of Aβ42 species; format: biochemical
T4 construct: Cleavage of APP results in several Aβ isoforms; The predominant species are Aβ42 and Aβ40; purchased Anaspec (Fremont, Calif., USA)
Method: The particle size distribution of 5 μM Aβ42 increased from a range of hydrodynamic radii of 40-80 nm to 100-500 nm after incubation for 24 h (FIG. 4a).

Aβ42 [6] = biological target: T4, Aβ42; experiment: PICUP SDS-PAGE of Aβ42 oligomers; format: biochemical; conditions: 5 μM Aβ42, equimolar ratio
Method: The reaction mixture was irradiated for 30 s using filament lamp (power=150 W) by keeping it 20 cm away from the bottom of the reaction tubes. The cross-linking reaction was then quenched immediately with dithiothreitol (1 M, 1 μL, Sigma Aldrich, St. Louis, Mo., USA). The samples were incubated on ice for 15 min. followed by the addition of SDS buffer. The samples were heated at 90° C. for 5 min. and then centrifuged. […] The samples were applied to Nu-PAGE electrophoresis in 12% Bis-Tris gels with SDS-PAGE buffer. The protein samples were stained with a silver stain kit from Sigma Aldrich (St. Louis, Mo., USA).

N2a cells = experiment: Confocal fluorescence microscopy, cellular uptake; format: cell-based, mouse; conditions: 24 h incubation
Method: N2a cells were seeded at a density of 5×10^4 cells/well in 500 μL complete medium in 4-chambered 35 mm glass bottom Cellview cell culture dishes (Greiner Bio-One, Monroe, N.C., USA). […] For mitochondrial colocalization experiments, 50 nM MitoTracker Red FM or MitoTracker Green FM (Thermo Fisher Scientific, Waltham, Mass., USA) was added to the chambers and incubated for 15 min. Thereafter, the medium was removed, the cells were washed with PBS to remove any extracellular peptide, inhibitor or organelle marker, and 300 μL phenol red- and serum-free medium was added to each chambers of the cell culture dish. Imaging was done on an Olympus Fluoview FV1000MPE Confocal/2—Photon microscope, using a 63× Plan-Apo/1.3 NA oil immersion objective with DIC capability. Image processing was done using the Fiji image processing software according to known methodology (Schindelin, J.; Arganda-Carreras, I.; Frise, E.; Kaynig, V.; Longair, M.; Pietzsch, T.; Preibisch, S.; Rueden, C.; Saalfeld, S.; Schmid, B.; Tinevez, J. Y.; White, D. J.; Hartenstein, V.; Eliceiri, K.; Tomancak, P.; Cardona, A. Nat. Methods 2012, 9, 676-682).

T4 sequence (P05067 672-713 limits assumed): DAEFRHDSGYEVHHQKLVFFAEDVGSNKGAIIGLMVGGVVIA
T2 sequence (P05067 672-711 limits assumed): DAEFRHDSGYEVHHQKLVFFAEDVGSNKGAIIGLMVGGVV
T1 sequence (P05067 672-711 limits assumed): as above

Kd [1]: 1.4 ± 0.2 µM
concentration range over which absorbance is linear ([2]; absorbance at 351 nm, phosphate buffer pH 7.4): 10 to 100 µM
diameter (from volume) of compound particles by DLS ([2]; phosphate buffer (150 mM KCl, 50 mM NaPi, pH 7.4), 20° C.): below 10 nm
effect on seed-catalyzed Aβ40 fibrillation (Aβ40 [3]): completely arrested
Kd (Aβ40 [4]): 0.7 ± 0.1 µM
rel. t50 of IAPP fibrillation (IAPP): 0.8±0.2
hydrodynamic radii of Aβ42 particles (Aβ42 [5]; 5 μM Aβ42, equimolar ratio, 24 h incubation): 50-100 nm
change in particle size of Aβ42-ADH-41 complex (Aβ42 [5]; after 3 days): No change
higher order oligomers of Aβ42 (PICUP, SDS-PAGE) (Aβ42 [6]; 24 h and 36 h): sparse populations
higher order oligomers of Aβ42 (PICUP, SDS-PAGE) (Aβ42 [6]; up to 12 h): no higher order oligomers
cell permeability (N2a cells): good cell permeability
SMILES: COC(=O)c1ccc(NC(=O)c2ccc(NC(=O)c3ccc([N+](=O)[O-])c(OCc4ccccc4)n3)c(OCCCN)n2)c(OCCCN)n1 [ADH-41]

From patent publication US10723716B2, “Alpha-helix mimetics as modulators of Abeta self-assembly” (New York University, priority 2016, dated 2020)
